Experimental data as given in patent US9814758B2, “Inhibitors of apoptosis and uses thereof” (CENTRE NATIONAL DE LA RECHERCHE SCIENTIFIQUE-CNRS, priority 2010, dated 2017).
No end group written: not given here.

System: C57Bl6 mice, myocardial ischemia-reperfusion
Experiment: Myocardial ischemia-reperfusion IR24h (40 min ischemia, 24 h reperfusion)
Type: in vivo, mouse
Details: reperfusion prolonged from 1 hour to 24 hours
Description: FIG. 11: In vivo experimental protocol. C57Bl6 mice underwent a surgical protocol of myocardial ischemia-reperfusion (IR). The black box represents the period of ischemia to which the mice were submitted. Infarct size or cell death measurements were performed at the end of surgery for each protocol (indicated by ↑). IR60′: 40 minutes of Ischemia, 60 minutes of Reperfusion. IR24h: 40 minutes Ischemia and 24 hours Reperfusion.
FIG. 14: Cardioprotective effects of Tat-DAXXp (1 mg/kg-IV) in mice subjected to IR24h. Infarct size (in % of area at risk) and internucleosomal DNA fragmentation determined by ELISA were quantified in mice subjected to IR24H and treated with Tat, Tat-DAXXp or Tat-scrDAXXp (1 mg/kg) as well as with DAXXp (10 mg/kg) (IV injection 5 minutes before reperfusion). […]
FIG. 15: Dose response for Tat-DAXXp and DAXXp in mice subjected to IR24h. Area at risk and infarct size (in % of area at risk) were measured in mice subjected to IR24h and treated by Tat (1 mg/kg), Tat-DAXXp (0.1, 1 and 10 mg/kg) or DAXXp (0.1, 1 and 10 mg/kg) injected intravenously 5 minutes before reperfusion. […]
In a second step, the cardioprotective effects of DAXXp were evaluated in an in vivo model of myocardial ischemia-reperfusion. […]

GRKKRRQRRRPPQKKSRKEKKQTGSGPLG-NH2 [Tat-DAXXp, GRKKRRQRRRPPQ-KKSRKEKKQTGSGPLG-NH2]
cardioprotective effects at prolonged reperfusion: maintained
